Measurements reported in US20090149520A1, “OXAZOLIDINONES CONTAINING OXINDOLES AS ANTIBACTERIAL AGENTS” (PFIZER INC, priority 2006, published 2009).
In brackets after ≈: the same amount, converted by molar mass.

Tests used:
Type in all cases: cell-based
E. faecalis MGH-2 EF 1-1 = assay: in vitro antibacterial activity MIC, E. faecalis; details: Enterococcus faecalis, MGH2EF11; strain MGH-2 EF 1-1; read-out: MICs E. faecalis MGH-2 EF 1-1
Description: (§1) The in vitro antibacterial activity of the compounds of the present invention may be assessed by following procedures recommended in (1) National Committee for Clinical Laboratory Standards (January 2003), Methods for dilution antimicrobial tests for bacteria that grow aerobically, Approved Standard (6th ed), M7-A6, NCCLS, Wayne, Pa.; (2) National Committee for Clinical Laboratory Standards (March 2001), Methods for antimicrobial susceptibility testing of anaerobic bacteria, Approved Standard (5th ed), M11-A4, NCCLS, Wayne, Pa.; (3) National Committee for Clinical Laboratory Standards (Jan. 2003), MIC testing supplemental tables, M100-S13 (for use with M7-A6), NCCLS, Wayne, Pa.; and (4) Murray P R, Baron E J, Jorgensen J H, et al. Manual of Clinical Microbiology (8th ed) Washington, D.C.: American Society for Microbiology Press, 2003. The antibacterial activity can be presented in the form of MIC value. The MIC value is the lowest concentration of drug, which prevented macroscopically visible growth under the conditions of the test.

S. pneumoniae SV1 SP-3 = assay: in vitro antibacterial activity MIC, S. pneumoniae; details: Streptococcus pneumoniae, SV1SP3; strain SV1 SP-3; read-out: MICs S. pneumoniae SV1 SP-3
Description: as §1

S. aureus UC-76 SA-1 = assay: in vitro antibacterial activity MIC, S. aureus; details: Staphylococcus aureus, UC76; strain UC-76 SA-1; read-out: MICs S. aureus UC-76 SA-1
Description: as §1

SMILES | MIC (E. faecalis MGH-2 EF 1-1) | MIC (S. pneumoniae SV1 SP-3) | MIC (S. aureus UC-76 SA-1)
CC(C)N1C(=O)Cc2cc(N3C[C@H](Cn4ccnn4)OC3=O)ccc21 [Example 1, (R)-5-((1H-1,2,3-triazol-1-yl)methyl)-3-(1-isopropyl-2 oxoindolin-5-yl)oxazolidin-2-one] | 8 µg/mL (≈ 23.4 µM) | 8 µg/mL (≈ 23.4 µM) | 8 µg/mL (≈ 23.4 µM)
CCN1C(=O)Cc2cc(N3C[C@H](Cn4ccnn4)OC3=O)ccc21 [Example 2] | 8 µg/mL (≈ 24.4 µM) | 4 µg/mL (≈ 12.2 µM) | 4 µg/mL (≈ 12.2 µM)
